Reference: patent publication US20060160989A1, “Polypeptide useful as antiallergic/antiasthmatic activity, methods for the preparation thereof, pharmaceutical compositions containing such polypeptide and use thereof” (COUNCIL OF SCIENTIC AND INDUSTRIAL RESEARCH, priority 2002, published 2006)
Like-named read-outs stand apart in the source and are kept apart here.

How the values were obtained:
[1] = system: sensitised guinea pig ileum; assay: Antigen (egg albumin) induced contraction of sensitised guinea pig ileum (Schultz-Dale phenomenon)
Protocol: (§1) This activity of peptide 96/199 was comarable with disodium cromoglycate (50 mg/kg ip) which is a standard antiallergic drug effective by inhalation.

normal guinea pigs = assay: Aerosol test, histamine, guinea pigs; assay type: in vivo
Normal mast cells = assay: Mast cell degranulation by comp 48/80 in normal mast cells (non-immunological); assay type: in vivo, rats
Excerpt: (§2) Peptide 96/199 is related to the sequence of IgE Fc fragment.

Sensitised mast cells = assay: Mast cell degranulation by egg albumin in sensitised mast cells (immunological); assay type: in vivo, rats
Excerpt: as §2

[2] = system: passive cutaneous anaphylaxis (PCA); assay: Passive cutaneous anaphylaxis (PCA) test in rats; assay type: in vivo; details: for % Anti-PCA activity: rats
sensitised guinea pigs = assay: Aerosol test, egg-albumin, sensitised guinea pigs; assay type: in vivo
Protocol: as §1

[3] = Other pharmacological studies (cardiovascular, CNS, anti-inflammatory, diuretic); assay type: in vivo
Excerpt: Other Pharmacological Studies: Peptide 96-199 was further evaluated for its cardiovascular, Central Nervous System (CNS), anti-inflammatory, diuretic activities.

leucine *amino-peptidase = details: enzymatic hydrolysis with leucine aminopeptidase, cited from earlier work
[4] = 50.0 pro (10.0 × 5 d) mg/kg × days
[5] = 0.5 pro (0.1 × 5 d) mg/kg × days
[6] = 1.0 pro (0.2 × 5 d) mg/kg × days
[7] = 2.5 pro (0.5 × 5 d) mg/kg × days
[8] = 5.0 pro (1.0 × 5 d) mg/kg × days

O=C([O-])c1cc(=O)c2c(OCC(O)COc3cccc4oc(C(=O)[O-])cc(=O)c34)cccc2o1.[Na+].[Na+] [DSCG, disodium cromoglycate, reference compound]
% Protection to ileum contraction induced by egg albumin ([1]; concentration 1.0 (μg/mL)): No block
% Protection to ileum contraction induced by egg albumin ([1]; concentration 2.0 (μg/mL)): 18%
% Protection to ileum contraction induced by egg albumin ([1]; concentration 3.0 (μg/mL)): 59%
% Protection, Histamine aerosol (normal guinea pigs; 50 mg/kg ip): 17%
% Protection, normal mast cells (Noninnunological: Comp. 48/80) (Normal mast cells; [4]): 72%
% Protection, sensitised mast cells (Immunological: Egg albumin) (Sensitised mast cells; [4]): 71%
anti PCA activity ([2]; 50 mg/kg by nasal route): 81%
% Anti-PCA activity ([2]; 50.0 mg/kg IP): 77%
% Protection, Egg-albumin aerosol (sensitised guinea pigs; 50 mg/kg ip): 64%

L-alanyl-glycyl-glycyl-L-aspartyl-sar-L-l ys [96/199]
% Protection to ileum contraction induced by egg albumin ([1]; concentration 1.0 (μg/mL)): 60%
% Protection to ileum contraction induced by egg albumin ([1]; concentration 2.0 (μg/mL)): 78%
% Protection to ileum contraction induced by egg albumin ([1]; concentration 3.0 (μg/mL)): 92%
% Protection, Histamine aerosol (normal guinea pigs; 2.5 mg/kg po): Nil
% Protection, Histamine aerosol (normal guinea pigs; 5.0 mg/kg po): 10%
% Protection, normal mast cells (Noninnunological: Comp. 48/80) (Normal mast cells; [5]): 39%
% Protection, normal mast cells (Noninnunological: Comp. 48/80) (Normal mast cells; [6]): 55%
% Protection, normal mast cells (Noninnunological: Comp. 48/80) (Normal mast cells; [7]): 77%
% Protection, normal mast cells (Noninnunological: Comp. 48/80) (Normal mast cells; [8]): 84%
% Protection, sensitised mast cells (Immunological: Egg albumin) (Sensitised mast cells; [5]): 34%
% Protection, sensitised mast cells (Immunological: Egg albumin) (Sensitised mast cells; [6]): 47%
% Protection, sensitised mast cells (Immunological: Egg albumin) (Sensitised mast cells; [7]): 66%
% Protection, sensitised mast cells (Immunological: Egg albumin) (Sensitised mast cells; [8]): 72%
% Anti-PCA activity ([2]; 0.5 mg/kg PO): 43%
% Anti-PCA activity ([2]; 1.0 mg/kg PO): 48%
% Anti-PCA activity ([2]; 2.5 mg/kg PO): 74%
% Anti-PCA activity ([2]; 5.0 mg/kg PO): 82%
any other pharmacological activity ([3]; in vivo): devoid of any other pharmacological activity
cardiovascular, Central Nervous System (CNS), anti-inflammatory, diuretic activities ([3]; up to a dose of 10 mg/kg): No significant effects
% Protection, Egg-albumin aerosol (sensitised guinea pigs; 2.5 mg/kg po): 55%
% Protection, Egg-albumin aerosol (sensitised guinea pigs; 5.0 mg/kg po): 61%

leucine enkephaline
half life (leucine *amino-peptidase; with beta-Cyclodextrins): 75 m.
half life (leucine *amino-peptidase; without cyclodextrin): 44 min
